Results: US9011589B2, “Magenta dyes and their preparation methods and applications” (Dalian University of Technology, priority 2012, dated 2015)

Experiments:
Type in all cases: physicochemical
[1] = Light resistance test of printed images with xenon lamp; details: grade of color difference ΔE; ink with 6 parts dye on glossy photo paper; xenon lamp 0.36 W/m^2, 60% RH, 24° C., 50 h
From the text: Prepare the ink composition according to the formula described in Table 1 containing the products obtained in the above embodiment as the magenta colorant, and filter the ink composition with a […] membrane filter to obtain the aqueous magenta ink composition of the present invention. Add triethanolamine to adjust the ink composition pH to 8˜10 and add deionized water to make the total volume to reach 100 parts by weight.
Use an ink-jet printer (Epson 270 manufactured by Epson Company), glossy photo paper (Epson) and the above described ink compositions for ink-jet printing.
Irradiate the printed glossy photo paper manufactured by Canon and Epson with Xenon-lamp Weathering Test Chamber ZG-P (manufactured by China Surui Company) at 60% RH and 24° C. with illuminance of 0.36 W/m^2 for 50 h, and check the color difference (ΔE) before and after the test. The color difference (ΔE) is calculated from the differences of values of L*, a*, b* before and after the test in the above described color measurement system (Unterlab) by the followings formula: ΔE=((difference of L*)^2+(difference of a*)^2+(difference of b*)^2)^1/2.
Three grades will be divided for the evaluation based on the following benchmark: […]

[2] = Evaluation of water solubility of the dye; details: solubility of the dye in water
From the text: (D) Evaluation of Water Solubility of the Dye (g/100 g Water)

[3] = Evaluation of long-term stability of the dye in aqueous solvent systems; design: key: ∘: No precipitation; Δ: Slight precipitation; x: Notable; details: 20 parts dye, 70 parts water, 10 parts ethylene glycol; 50° C. 7 d, then 0° C. 7 d; precipitation on filtering
Method: Heat and dissolve the system consisting of 20 parts of dyes, 70 parts of water and 10 parts of ethylene glycol; after the solution cools down, store it airtight at a constant temperature of 50° C. for 7 d; cool it to 0° C. and store it at the same temperature for 7 d; filter the solution and evaluate it in 3 grades based on the following benchmark: […]

[4] = Gas (ozone) resistance of the printed images; details: grade of color difference ΔE; 40 ppm ozone, 60% RH, 24° C., 6 h
From the text: Prepare the ink composition according to the formula described in Table 1 containing the products obtained in the above embodiment as the magenta colorant, and filter the ink composition with a […] membrane filter to obtain the aqueous magenta ink composition of the present invention. Add triethanolamine to adjust the ink composition pH to 8˜10 and add deionized water to make the total volume to reach 100 parts by weight. Use an ink-jet printer (Epson 270 manufactured by Epson Company), glossy photo paper (Epson) and the above described ink compositions for ink-jet printing. Place the printed images in the Ozone Weathering Test Chamber (manufactured by China Surui Company) at 40 ppm ozone, 60% RH and 24° C. for 6 h. Calculate the color difference (ΔE) before and after the test in the same manner as described in (1) above and evaluate it in 3 grades based on the following benchmark: [table]

Row | Compound | UV resistance of printed images [1] | Long-term stability of the dye in aqueous solvent systems [3] | Ozone resistance of printed images [4] | Water solubility of the dye [2]
1 | O=S(=O)([O-])c1cc(Nc2nc(Nc3ccc(/C=C/c4ccc(Nc5nc(Nc6cc(S(=O)(=O)[O-])cc7cc(S(=O)(=O)[O-])c(N=Nc8ccccc8)c(O)c67)nc(N6CCOCC6)n5)cc4S(=O)(=O)[O-])c(S(=O)(=O)[O-])c3)nc(N3CCOCC3)n2)c2c(O)c(N=Nc3ccccc3)c(S(=O)(=O)[O-])cc2c1.[Na+].[Na+].[Na+].[Na+].[Na+].[Na+] [C.I. direct red 227, reference compound] | x (ΔE > 20) | Δ | x (ΔE > 20) | x (The solubility of the dye in water <15)
2 | O=C(Nc1cc(S(=O)(=O)[O-])cc2cc(S(=O)(=O)[O-])c(N=Nc3ccc4cc(S(=O)(=O)CCOS(=O)(=O)[O-])ccc4c3S(=O)(=O)[O-])c(O)c12)c1ccccc1.[Na+].[Na+].[Na+].[Na+] [C.I. reactive red 180, reference compound] | x (ΔE > 20) | Δ | x (ΔE > 20) | 
3 | O=C([O-])CCCS(=O)(=O)c1ccc(S(=O)(=O)[O-])c(Nc2cc(S(=O)(=O)[O-])c3[nH]c(=O)c(C(=O)[O-])c4c3c2C(=O)c2ccccc2-4)c1.[Na+].[Na+].[Na+].[Na+] [Dm1] | ∘ (ΔE < 10) | ∘ | ∘ (ΔE < 10) | ∘ (The solubility of the dye in water >30)
4 | O=C([O-])CCCS(=O)(=O)c1ccc(S(=O)(=O)[O-])c(Nc2cc(S(=O)(=O)[O-])c3[nH]c(=O)c(C(=O)OCc4ccccc4)c4c3c2C(=O)c2ccccc2-4)c1.[Na+].[Na+].[Na+] [Dm3] | ∘ (ΔE < 10) | ∘ | ∘ (ΔE < 10) | ∘ (The solubility of the dye in water >30)
5 | Cc1ccc(COC(=O)c2c3c4c(c(Nc5cc(S(=O)(=O)CCCC(=O)[O-])ccc5S(=O)(=O)[O-])cc(S(=O)(=O)[O-])c4[nH]c2=O)C(=O)c2ccccc2-3)cc1.[Na+].[Na+].[Na+] [Dm5] | ∘ (ΔE < 10) | ∘ | ∘ (ΔE < 10) | ∘ (The solubility of the dye in water >30)
6 | Cn1c(=O)c(C(=O)OCc2cccc3ccccc23)c2c3c(c(Nc4ccc(S(=O)(=O)[O-])cc4S(=O)(=O)[O-])ccc31)C(=O)c1ccccc1-2.[Na+].[Na+] [Dye2, reference compound] | ∘ (ΔE < 10) | Δ | ∘ (ΔE < 10) | Δ (The solubility of the dye in water >15-20)

Second part, led by results:

Row | UV resistance of printed images [1] | Long-term stability of the dye in aqueous solvent systems [3] | Ozone resistance of printed images [4] | Compound | Water solubility of the dye [2]
7 | ∘ (ΔE < 10) | ∘ | ∘ (ΔE < 10) | O=C([O-])CCCS(=O)(=O)c1ccc(S(=O)(=O)[O-])c(Nc2cc(S(=O)(=O)[O-])c3[nH]c(=O)c(C(=O)OCc4cccc([N+](=O)[O-])c4)c4c3c2C(=O)c2ccccc2-4)c1.[Na+].[Na+].[Na+] [Dm7] | ∘ (The solubility of the dye in water >30)
8 | ∘ (ΔE < 10) | ∘ | ∘ (ΔE < 10) | O=C([O-])CCCS(=O)(=O)c1cc(S(=O)(=O)[O-])c(Nc2cc(S(=O)(=O)[O-])c3[nH]c(=O)c(C(=O)[O-])c4c3c2C(=O)c2ccccc2-4)c(S(=O)(=O)[O-])c1.[Na+].[Na+].[Na+].[Na+].[Na+] [Dp2] | ∘ (The solubility of the dye in water >30)
9 | ∘ (ΔE < 10) | ∘ | ∘ (ΔE < 10) | O=C([O-])CCCS(=O)(=O)c1cc(S(=O)(=O)[O-])c(Nc2cc(S(=O)(=O)[O-])c3[nH]c(=O)c(C(=O)OCc4ccccc4)c4c3c2C(=O)c2ccccc2-4)c(S(=O)(=O)[O-])c1.[Na+].[Na+].[Na+].[Na+] [Dp4] | ∘ (The solubility of the dye in water >30)
10 | ∘ (ΔE < 10) | ∘ | ∘ (ΔE < 10) | O=C([O-])CCCS(=O)(=O)c1cc(S(=O)(=O)[O-])c(Nc2cc(S(=O)(=O)[O-])c3[nH]c(=O)c(C(=O)OCc4cccc(Cl)c4)c4c3c2C(=O)c2ccccc2-4)c(S(=O)(=O)[O-])c1.[Na+].[Na+].[Na+].[Na+] [Dp10] | ∘ (The solubility of the dye in water >30)
11 | ∘ (ΔE < 10) | ∘ | ∘ (ΔE < 10) | O=C([O-])CCCS(=O)(=O)c1cc(S(=O)(=O)[O-])c(Nc2cc(S(=O)(=O)[O-])c3[nH]c(=O)c(C(=O)OCc4cccc(S(=O)(=O)[O-])c4)c4c3c2C(=O)c2ccccc2-4)c(S(=O)(=O)[O-])c1.[Na+].[Na+].[Na+].[Na+].[Na+] [Dp14] | ∘ (The solubility of the dye in water >30)
12 | ∘ (ΔE < 10) | ∘ | ∘ (ΔE < 10) | O=C([O-])CCCS(=O)(=O)c1cc(S(=O)(=O)[O-])c(Nc2cc(S(=O)(=O)[O-])c3[nH]c(=O)c(C(=O)OCc4cccc5ccccc45)c4c3c2C(=O)c2ccccc2-4)c(S(=O)(=O)[O-])c1.[Na+].[Na+].[Na+].[Na+] [Dp17] | Δ (The solubility of the dye in water >15-20)
